Measured values reported in the NIST ThermoML archive (doi:10.1016/j.jct.2018.08.005).
Numbers after ± are expanded uncertainties.

Assay: xn = mol fraction of the nth substance listed
Conditions: Liquid, Vibrating tube method

CCOC(F)(C(F)(F)C(F)(F)C(F)(F)F)C(F)(C(F)(F)F)C(F)(F)F (stereo not given) [2-trifluoromethyl-3-ethoxydodecafluorohexane] + CC(C)OC(C)C
mass density [kg/m3]
Conditions | x1 = 0.25 | x1 = 0.375 | x1 = 0.5 | x1 = 0.625 | x1 = 0.75
363.15 K, 70000 kPa | 1074.1 ± 0.8 | 1203 ± 1 | 1317.5 ± 1.2 | 1418.6 ± 1.5 | 1507 ± 1.8
363.15 K, 80000 kPa | 1085.2 ± 0.8 | 1215.5 ± 1.1 | 1330.8 ± 1.4 | 1432.6 ± 1.7 | 1521.5 ± 2
363.15 K, 90000 kPa | 1095.5 ± 0.9 | 1227 ± 1.2 | 1343.1 ± 1.5 | 1445.6 ± 1.9 | 1534.9 ± 2.3
363.15 K, 100000 kPa | 1105.1 ± 0.9 | 1237.5 ± 1.3 | 1354.5 ± 1.7 | 1457.8 ± 2.1 | 1547.4 ± 2.5
363.15 K, 110000 kPa | 1114.2 ± 0.9 | 1247.5 ± 1.4 | 1365.3 ± 1.9 | 1469.1 ± 2.4 | 1559.3 ± 2.8
363.15 K, 120000 kPa | 1122.7 ± 1 | 1257.1 ± 1.5 | 1375.4 ± 2.1 | 1479.8 ± 2.6 | 1570.4 ± 3.1
363.15 K, 130000 kPa | 1130.7 ± 1.1 | 1265.9 ± 1.6 | 1385 ± 2.3 | 1490 ± 2.8 | 1580.9 ± 3.3
363.15 K, 140000 kPa | 1138.4 ± 1.1 | 1274.6 ± 1.8 | 1394.2 ± 2.5 | 1499.7 ± 3.1 | 1591 ± 3.6
373.15 K, 10000 kPa | 957.5 ± 0.8 | 1074 ± 0.8 | 1179.6 ± 0.8 | 1272.3 ± 0.8 | 1355.8 ± 0.8
373.15 K, 20000 kPa | 983.8 ± 0.7 | 1103.6 ± 0.8 | 1210.9 ± 0.8 | 1305.3 ± 0.8 | 1389.8 ± 0.9
373.15 K, 30000 kPa | 1005 ± 0.7 | 1127.2 ± 0.8 | 1236 ± 0.8 | 1331.8 ± 0.9 | 1417.3 ± 1
373.15 K, 40000 kPa | 1022.8 ± 0.7 | 1147.1 ± 0.8 | 1257.2 ± 0.9 | 1354.2 ± 1 | 1440.5 ± 1.1
373.15 K, 50000 kPa | 1038.4 ± 0.8 | 1164.3 ± 0.8 | 1275.8 ± 1 | 1373.8 ± 1.1 | 1460.8 ± 1.3
373.15 K, 60000 kPa | 1052.3 ± 0.8 | 1179.7 ± 0.9 | 1292.2 ± 1.1 | 1391.2 ± 1.3 | 1478.9 ± 1.5
373.15 K, 70000 kPa | 1064.8 ± 0.8 | 1193.7 ± 1 | 1307.2 ± 1.2 | 1407 ± 1.5 | 1495.3 ± 1.7
373.15 K, 80000 kPa | 1076.3 ± 0.8 | 1206.4 ± 1 | 1320.8 ± 1.3 | 1421.5 ± 1.7 | 1510.3 ± 2
373.15 K, 90000 kPa | 1086.9 ± 0.8 | 1218.3 ± 1.1 | 1333.5 ± 1.5 | 1435 ± 1.9 | 1524.3 ± 2.2
373.15 K, 100000 kPa | 1096.9 ± 0.9 | 1229.2 ± 1.2 | 1345.3 ± 1.7 | 1447.4 ± 2.1 | 1537.2 ± 2.5
373.15 K, 110000 kPa | 1106.1 ± 0.9 | 1239.6 ± 1.3 | 1356.2 ± 1.8 | 1459.1 ± 2.3 | 1549.4 ± 2.7
373.15 K, 120000 kPa | 1114.8 ± 1 | 1249.3 ± 1.5 | 1366.6 ± 2 | 1470.1 ± 2.5 | 1560.8 ± 3
373.15 K, 130000 kPa | 1123.1 ± 1 | 1258.3 ± 1.6 | 1376.4 ± 2.2 | 1480.5 ± 2.8 | 1571.6 ± 3.3
373.15 K, 140000 kPa | 1130.8 ± 1.1 | 1267 ± 1.7 | 1385.7 ± 2.4 | 1490.4 ± 3 | 1581.8 ± 3.6
383.15 K, 10000 kPa | 942.8 ± 0.8 | 1058 ± 0.8 | 1162.6 ± 0.8 | 1254.2 ± 0.8 | 1336.7 ± 0.8
383.15 K, 20000 kPa | 971.3 ± 0.7 | 1089.6 ± 0.8 | 1196.3 ± 0.8 | 1289.7 ± 0.8 | 1373.1 ± 0.9
383.15 K, 30000 kPa | 993.8 ± 0.7 | 1114.7 ± 0.8 | 1223 ± 0.8 | 1317.8 ± 0.9 | 1402 ± 1
383.15 K, 40000 kPa | 1012.6 ± 0.7 | 1135.6 ± 0.8 | 1245.4 ± 0.9 | 1341.5 ± 1 | 1426.5 ± 1.1
383.15 K, 50000 kPa | 1028.9 ± 0.8 | 1153.6 ± 0.8 | 1264.7 ± 1 | 1361.9 ± 1.1 | 1447.6 ± 1.3
383.15 K, 60000 kPa | 1043.2 ± 0.8 | 1169.5 ± 0.9 | 1281.8 ± 1.1 | 1379.9 ± 1.2 | 1466.4 ± 1.5
383.15 K, 70000 kPa | 1056.2 ± 0.8 | 1184 ± 0.9 | 1297.2 ± 1.2 | 1396.3 ± 1.4 | 1483.3 ± 1.7
383.15 K, 80000 kPa | 1068.1 ± 0.8 | 1197.2 ± 1 | 1311.3 ± 1.3 | 1411.4 ± 1.6 | 1498.8 ± 1.9
383.15 K, 90000 kPa | 1079 ± 0.8 | 1209.3 ± 1.1 | 1324.3 ± 1.5 | 1425 ± 1.8 | 1513.1 ± 2.2
383.15 K, 100000 kPa | 1089.2 ± 0.9 | 1220.6 ± 1.2 | 1336.3 ± 1.6 | 1437.8 ± 2 | 1526.4 ± 2.4
383.15 K, 110000 kPa | 1098.7 ± 0.9 | 1231.2 ± 1.3 | 1347.6 ± 1.8 | 1449.8 ± 2.3 | 1538.8 ± 2.7
383.15 K, 120000 kPa | 1107.7 ± 0.9 | 1241.3 ± 1.4 | 1358.3 ± 2 | 1461.2 ± 2.5 | 1550.7 ± 3
383.15 K, 130000 kPa | 1116.1 ± 1 | 1250.6 ± 1.6 | 1368.1 ± 2.2 | 1471.8 ± 2.7 | 1561.7 ± 3.2
383.15 K, 140000 kPa | 1124.2 ± 1.1 | 1259.6 ± 1.7 | 1377.9 ± 2.4 | 1481.9 ± 3 | 1572.3 ± 3.5
393.15 K, 10000 kPa | 927.9 ± 0.8 | 1041.6 ± 0.8 | 1145.1 ± 0.8 | 1235.9 ± 0.8 | 1317.8 ± 0.8
393.15 K, 20000 kPa | 958.4 ± 0.8 | 1075.7 ± 0.8 | 1181.2 ± 0.8 | 1273.8 ± 0.8 | 1356.7 ± 0.9
393.15 K, 30000 kPa | 982.1 ± 0.8 | 1102.2 ± 0.8 | 1209.4 ± 0.8 | 1303.4 ± 0.9 | 1387.3 ± 1
393.15 K, 40000 kPa | 1001.8 ± 0.7 | 1124 ± 0.8 | 1232.7 ± 0.9 | 1328 ± 1 | 1412.8 ± 1.1
393.15 K, 50000 kPa | 1018.7 ± 0.8 | 1142.7 ± 0.8 | 1252.8 ± 1 | 1349.1 ± 1.1 | 1434.8 ± 1.2
393.15 K, 60000 kPa | 1033.7 ± 0.8 | 1159.3 ± 0.9 | 1270.5 ± 1.1 | 1368 ± 1.2 | 1454.2 ± 1.4
393.15 K, 70000 kPa | 1047.2 ± 0.8 | 1174.3 ± 0.9 | 1286.5 ± 1.2 | 1385.1 ± 1.4 | 1471.7 ± 1.7
393.15 K, 80000 kPa | 1059.3 ± 0.8 | 1187.7 ± 1 | 1300.8 ± 1.3 | 1400.3 ± 1.6 | 1487.5 ± 1.9
393.15 K, 90000 kPa | 1070.8 ± 0.8 | 1200.4 ± 1.1 | 1314.4 ± 1.4 | 1414.7 ± 1.8 | 1502.4 ± 2.1
393.15 K, 100000 kPa | 1081.3 ± 0.8 | 1211.9 ± 1.2 | 1326.8 ± 1.6 | 1428 ± 2 | 1516 ± 2.4
393.15 K, 110000 kPa | 1091 ± 0.9 | 1222.8 ± 1.3 | 1338.4 ± 1.8 | 1440.1 ± 2.2 | 1528.7 ± 2.6
393.15 K, 120000 kPa | 1100.3 ± 0.9 | 1233 ± 1.4 | 1349.4 ± 1.9 | 1451.6 ± 2.5 | 1540.7 ± 2.9
393.15 K, 130000 kPa | 1108.9 ± 1 | 1242.6 ± 1.5 | 1359.7 ± 2.1 | 1462.5 ± 2.7 | 1552.1 ± 3.2
393.15 K, 140000 kPa | 1117 ± 1 | 1251.6 ± 1.7 | 1369.3 ± 2.3 | 1472.9 ± 2.9 | 1562.7 ± 3.4
